Values quoted from earlier work in patent US8242172B2, “2,2-dimethylbutyric acid oral pharmaceutical compositions” (Trustees of Boston University, priority 1998, dated 2012).

Key:
ΔF508-CFTR [1] = target: T1, ΔF508-CFTR (Homo sapiens, UniProt P13569, DEL508-508); parameters: primary cultures of nasal polyp epithelia from CF patients (ΔF508 homozygous or heterozygous); endogenous in cells; host or cells: primary nasal polyp epithelia from CF patients; IB3-1 CF bronchial epithelial cell line; conditions: IB3-1 cells, 2.5 mM
T1 sequence (P13569 with tags, fused parts or gaps DEL508-508): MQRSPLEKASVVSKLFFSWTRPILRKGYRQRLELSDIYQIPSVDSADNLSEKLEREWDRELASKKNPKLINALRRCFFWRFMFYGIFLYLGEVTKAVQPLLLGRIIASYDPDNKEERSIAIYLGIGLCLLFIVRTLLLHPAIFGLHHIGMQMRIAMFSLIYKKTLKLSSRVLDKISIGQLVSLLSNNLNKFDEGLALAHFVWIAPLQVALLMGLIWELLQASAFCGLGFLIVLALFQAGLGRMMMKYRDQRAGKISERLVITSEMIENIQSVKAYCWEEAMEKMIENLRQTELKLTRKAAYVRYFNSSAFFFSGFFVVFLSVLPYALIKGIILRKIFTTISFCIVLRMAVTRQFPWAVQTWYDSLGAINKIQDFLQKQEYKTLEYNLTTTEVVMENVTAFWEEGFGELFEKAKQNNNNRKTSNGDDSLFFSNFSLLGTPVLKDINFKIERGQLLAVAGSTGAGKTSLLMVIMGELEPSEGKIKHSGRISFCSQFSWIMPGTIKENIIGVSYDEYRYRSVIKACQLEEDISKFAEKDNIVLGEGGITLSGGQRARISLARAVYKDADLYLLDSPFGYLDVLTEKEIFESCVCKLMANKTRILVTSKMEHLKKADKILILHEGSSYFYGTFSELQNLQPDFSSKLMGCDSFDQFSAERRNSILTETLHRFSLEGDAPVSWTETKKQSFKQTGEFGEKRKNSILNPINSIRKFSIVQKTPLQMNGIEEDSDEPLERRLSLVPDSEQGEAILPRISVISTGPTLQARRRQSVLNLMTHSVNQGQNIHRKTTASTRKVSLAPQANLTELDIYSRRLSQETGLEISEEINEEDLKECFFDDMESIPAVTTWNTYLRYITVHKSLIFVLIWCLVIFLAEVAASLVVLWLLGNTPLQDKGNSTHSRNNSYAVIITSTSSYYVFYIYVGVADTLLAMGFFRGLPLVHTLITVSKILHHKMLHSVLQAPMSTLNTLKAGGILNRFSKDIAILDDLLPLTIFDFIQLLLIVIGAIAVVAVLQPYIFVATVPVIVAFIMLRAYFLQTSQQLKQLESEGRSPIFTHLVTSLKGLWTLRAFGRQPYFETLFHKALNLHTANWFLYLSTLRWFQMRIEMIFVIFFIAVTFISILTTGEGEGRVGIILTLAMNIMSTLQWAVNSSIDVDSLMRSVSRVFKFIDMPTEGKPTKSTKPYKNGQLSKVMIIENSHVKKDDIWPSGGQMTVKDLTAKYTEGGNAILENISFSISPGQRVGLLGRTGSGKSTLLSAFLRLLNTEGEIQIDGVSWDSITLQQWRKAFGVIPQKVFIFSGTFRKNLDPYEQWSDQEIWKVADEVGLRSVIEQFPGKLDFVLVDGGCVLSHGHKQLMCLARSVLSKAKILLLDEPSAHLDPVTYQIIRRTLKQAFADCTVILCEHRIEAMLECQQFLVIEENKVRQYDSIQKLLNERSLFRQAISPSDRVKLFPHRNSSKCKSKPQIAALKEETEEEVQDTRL

ΔF508-CFTR [2] = target: T1, ΔF508-CFTR; parameters: primary cultures of nasal polyp epithelia from CF patients (ΔF508 homozygous or heterozygous); endogenous in cells; host or cells: primary nasal polyp epithelia from CF patients; IB3-1 CF bronchial epithelial cell line; conditions: 0.1 and 2 mM, up to 7 days in culture; primary nasal polyp epithelia from CF patients or IB3-1
CF patients = conditions: human, in vivo
ΔF508-CFTR [3] = conditions: IB3-1 cells, 0.1-1 mM; primary nasal epithelia, 5 mM
ΔF508-CFTR [4] = conditions: 5 mM, 24 hours, C-127 cells
ΔF508-CFTR [5] = target: T1, ΔF508-CFTR; conditions: up to 300 mM
IB3-1 cells = conditions: equimolar concentrations (1-2 mM)
ΔF508-CFTR [6] = target: T1, ΔF508-CFTR; conditions: 1 M or 10%

Q: With `O=C(O)CCCc1ccccc1` [4PBA, 4-phenylbutyrate] as the molecule, how does the “protein kinase A-activated, linear, 10 pS chloride channels at plasma membrane” value (ΔF508-CFTR [1]) read?
A: The value was “chloride channels appeared at the plasma membrane”.

Q: What about the forskolin-activated chloride secretion (ΔF508-CFTR [2]) of the same molecule?
A: Its forskolin-activated chloride secretion is “restoration of forskolin-activated chloride secretion”.

Q: What about the clinical tolerability (CF patients) of the same molecule?
A: Its clinical tolerability is “not well tolerated”.

Q: What about the “higher molecular mass forms of CFTR (immunoblot)” value (ΔF508-CFTR [3]) of the same molecule?
A: The value was “appearance of higher molecular mass forms of CFTR”.

Q: Which “~180-kD mature glycosylated species of CFTR” value (ΔF508-CFTR [4]) does the source give for `CCCC(=O)O` [butyrate, butyric acid] here?
A: Its value is “not observed”.

Q: What about the “ΔF508-CFTR mRNA by Northern analysis” value (ΔF508-CFTR [4]) of the same molecule?
A: The value was “massive increase in ΔF508-CFTR mRNA”.

Q: And the “cAMP-stimulation indicative of chloride ion transport” value (ΔF508-CFTR [5])?
A: The value was “no increases in cAMP-stimulation was observed”.

Q: And the “cell morphology and growth rate” value (IB3-1 cells)?
A: Its value is “morphologic changes in IB3-1 cells, with rounding of cells and decreased growth rate”.

Q: Which “movement of ΔF508-CFTR from the ER to the plasma membrane” value (ΔF508-CFTR [6]) does the source give for `OCC(O)CO` [glycerol] here?
A: Its value is “appears to facilitate movement of ΔF508-CFTR from the ER to the plasma membrane”.

Q: Which “effectiveness at continuous administration” value (thalassemic patients; continuous administration at about 2000 mg/kg patient weight) does the source give for arginine butyrate here?
A: The value was “effective”.

Q: And the “benefit measured by rise in fetal hemoglobin levels” value (thalassemic patients; pulses, about 400 to 1500 mg/kg, thalassemic patients)?
A: The value was “surprisingly more beneficial”.
